Source: ChEMBL document CHEMBL1201862, “PubChem BioAssay data set” (2004)
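48-hour exposure; five concentrations; linearly interpolated endpoints. Here, GI50 denotes the concentration required for 50% inhibition of growth.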 Calls of active or inactive are those of the source. No stated cut-off is given here; in the data, active = GI50 up to about 1.1 µM and inactive = higher.

What was measured:
Experiment in all cases: NCI-60 cell line screen, 48 h
TK-10 = test system: TK-10
M14 = test system: M14
UACC-257 = test system: UACC-257
K562 = test system: K562
NCI-H226 = test system: NCI-H226
ACHN = test system: ACHN
HT-29 = test system: HT-29
A498 = test system: A498
COLO 205 = test system: COLO 205
HCC 2998 = test system: HCC 2998
UACC-62 = test system: UACC-62
KM12 = test system: KM12
LOX IMVI = test system: LOX IMVI
UO-31 = test system: UO-31
Malme-3M = test system: Malme-3M
SN12C = test system: SN12C

Measured: GI50

C=CCCCN1CCCC(C)C1=S (stereo not given)
inactive: TK-10 > 100 µM | M14 > 100 µM | UACC-257 > 100 µM | K562 > 100 µM | NCI-H226 > 100 µM | ACHN > 100 µM | HT-29 > 100 µM | A498 > 100 µM | COLO 205 > 100 µM | HCC 2998 > 100 µM | UACC-62 > 100 µM | KM12 > 100 µM | LOX IMVI > 100 µM | UO-31 > 100 µM | Malme-3M > 100 µM

O=C(NCCCCCCNC(=O)c1cccc2ccccc12)c1cccc2ccccc12
inactive: TK-10 14.9 µM | M14 46.8 µM | SN12C 25.7 µM | UACC-257 74.3 µM | K562 > 100 µM | NCI-H226 17.8 µM | ACHN 31.4 µM | HT-29 > 100 µM | A498 24.3 µM | COLO 205 1.85 µM | UACC-62 > 100 µM | KM12 > 100 µM | LOX IMVI 14.2 µM | UO-31 31.5 µM | Malme-3M 33.3 µM

COC(=O)c1ccccc1NC(=O)C(=O)NNC(=O)c1ccncc1
inactive: TK-10 > 100 µM | M14 > 100 µM | SN12C > 100 µM | UACC-257 > 100 µM | NCI-H226 > 100 µM | ACHN > 100 µM | HT-29 > 100 µM | COLO 205 > 100 µM | HCC 2998 > 100 µM | UACC-62 > 100 µM | KM12 > 100 µM | LOX IMVI > 100 µM | UO-31 > 100 µM | Malme-3M > 100 µM

Clc1ccc(C2=NOC3C4CCC(C4)C23)cc1 (stereo not given)
inactive: TK-10 > 100 µM | M14 > 100 µM | SN12C > 100 µM | UACC-257 > 100 µM | K562 > 100 µM | NCI-H226 > 100 µM | ACHN > 100 µM | HT-29 > 100 µM | A498 > 100 µM | COLO 205 > 100 µM | HCC 2998 > 100 µM | UACC-62 > 100 µM | KM12 > 100 µM | UO-31 > 100 µM | Malme-3M > 100 µM

CC(C)(C)c1cc(CCC(=O)Nc2ccc(Cl)cc2)nc(S)n1
inactive: TK-10 > 100 µM | M14 > 100 µM | SN12C > 100 µM | UACC-257 > 100 µM | K562 > 100 µM | NCI-H226 > 100 µM | ACHN > 100 µM | HT-29 > 100 µM | COLO 205 > 100 µM | HCC 2998 > 100 µM | UACC-62 > 100 µM | KM12 > 100 µM | LOX IMVI > 100 µM | UO-31 > 100 µM | Malme-3M > 100 µM

CN(c1ccccc1)c1cc2ccccc2nn1
inactive: TK-10 > 100 µM | M14 > 100 µM | SN12C > 100 µM | UACC-257 > 100 µM | K562 89.7 µM | NCI-H226 > 100 µM | ACHN 74 µM | HT-29 > 100 µM | A498 > 100 µM | COLO 205 > 100 µM | UACC-62 > 100 µM | KM12 > 100 µM | LOX IMVI 84.5 µM | UO-31 29.3 µM | Malme-3M 87.1 µM

NC(Cc1ccccc1)C(=O)OCN1C(=O)C2C3C=CC(C2C1=O)C1C2C(=O)N(COC(=O)C(N)Cc4ccccc4)C(=O)C2C31 (stereo not given)
inactive: TK-10 39.2 µM | M14 19.5 µM | SN12C 20.8 µM | UACC-257 23.2 µM | K562 29.6 µM | NCI-H226 27.7 µM | ACHN 26.5 µM | HT-29 31.8 µM | COLO 205 17.9 µM | UACC-62 20.7 µM | KM12 20.7 µM | LOX IMVI 18.7 µM

CCOC(=O)NC(=O)c1cn(CC(=O)NCC(=O)NCC(=O)N2CCN(CCn3c(C)nc(C(N)=O)c3N)CC2)c(=O)[nH]c1=O
inactive: TK-10 > 100 µM | M14 > 100 µM | SN12C > 100 µM | UACC-257 > 100 µM | K562 > 100 µM | ACHN > 100 µM | HT-29 > 100 µM | A498 > 100 µM | COLO 205 > 100 µM | HCC 2998 > 100 µM | UACC-62 > 100 µM | KM12 > 100 µM | LOX IMVI > 100 µM | UO-31 > 100 µM | Malme-3M > 100 µM

CN(C)CCCNC(=O)N/N=C/c1cccc([N+](=O)[O-])c1
inactive: TK-10 > 100 µM | M14 > 100 µM | SN12C > 100 µM | UACC-257 > 100 µM | K562 > 100 µM | NCI-H226 > 100 µM | ACHN > 100 µM | HT-29 > 100 µM | UACC-62 > 100 µM | KM12 > 100 µM | LOX IMVI > 100 µM | Malme-3M > 100 µM

NC(=O)N1N=C2c3ccccc3SC[C@H]2[C@@H]1c1ccccc1
inactive: TK-10 32.1 µM | SN12C 33.8 µM | UACC-257 18.4 µM | K562 24.2 µM | NCI-H226 22.2 µM | ACHN 33.3 µM | HT-29 19.7 µM | A498 35.1 µM | COLO 205 20.7 µM | HCC 2998 26.9 µM | KM12 > 10 µM | LOX IMVI 17.5 µM | UO-31 23.9 µM | Malme-3M 26.9 µM

[N-]=[N+]=NC1CC(n2cc(COCC(F)(F)F)c(=O)[nH]c2=O)OC1CO (stereo not given)
inactive: TK-10 > 100 µM | M14 > 100 µM | SN12C > 100 µM | UACC-257 > 100 µM | K562 > 100 µM | ACHN > 100 µM | HT-29 > 100 µM | A498 > 100 µM | COLO 205 > 100 µM | HCC 2998 > 100 µM | UACC-62 > 100 µM | KM12 > 100 µM | LOX IMVI > 100 µM | UO-31 > 100 µM | Malme-3M > 100 µM

O=c1[nH]c(-c2ccccc2)nc2cc([N+](=O)[O-])c(/C(Cl)=C/c3ccccc3)cc12
inactive: TK-10 27.7 µM | SN12C 36.6 µM | UACC-257 16.1 µM | K562 7.5 µM | NCI-H226 > 100 µM | ACHN 68.2 µM | HT-29 > 10 µM | COLO 205 21.5 µM | HCC 2998 > 100 µM | UACC-62 15.1 µM | KM12 26.2 µM | UO-31 99.5 µM | Malme-3M 24.3 µM

Nc1ccc2c(c1)Oc1c(F)c(F)cc3c(=O)c(C(=O)O)cn-2c13
inactive: TK-10 38.1 µM | M14 81.5 µM | SN12C 39.1 µM | K562 59.6 µM | HT-29 35.2 µM | A498 4 µM | COLO 205 45 µM | HCC 2998 > 100 µM | UACC-62 31.3 µM | KM12 23.6 µM | UO-31 27.3 µM | Malme-3M 45.9 µM

[N-]=[N+]=NC(c1cn(C2CC(O)C(CO)O2)c(=O)[nH]c1=O)C(Cl)Br (stereo not given)
inactive: TK-10 > 100 µM | SN12C > 100 µM | K562 > 100 µM | NCI-H226 > 100 µM | ACHN > 100 µM | HT-29 > 100 µM | COLO 205 > 100 µM | HCC 2998 > 100 µM | KM12 > 100 µM | LOX IMVI > 100 µM | UO-31 > 100 µM | Malme-3M > 100 µM

Cc1nc(Nc2ccc([N+](=O)[O-])cc2)sc1C(=O)/C=C/c1ccc(N(C)C)cc1
inactive: TK-10 77.4 µM | SN12C > 100 µM | UACC-257 81.3 µM | K562 37.8 µM | ACHN 48.3 µM | HT-29 > 100 µM | A498 49.2 µM | COLO 205 > 100 µM | HCC 2998 78.3 µM | UACC-62 > 100 µM | KM12 57.8 µM | LOX IMVI 64.7 µM | UO-31 36.8 µM | Malme-3M > 100 µM

Cc1ccccc1NC(=O)CC(=O)n1nc(-c2ccccc2)c(/N=N/c2ccc([N+](=O)[O-])cc2)c1-c1ccccc1
inactive: TK-10 37.1 µM | M14 16.7 µM | SN12C 22.1 µM | UACC-257 19.9 µM | K562 12.3 µM | NCI-H226 14.1 µM | ACHN 11.2 µM | HT-29 8.34 µM | COLO 205 16.8 µM | HCC 2998 17.9 µM | UACC-62 13.1 µM | KM12 16.7 µM | LOX IMVI 20.6 µM | UO-31 7.03 µM | Malme-3M 23.8 µM

COC(=O)C(=O)C(CC(=O)Nc1ccc(C)cc1)C(=O)OC (stereo not given)
inactive: TK-10 > 100 µM | M14 > 100 µM | SN12C > 100 µM | UACC-257 > 100 µM | K562 > 100 µM | NCI-H226 > 100 µM | ACHN > 100 µM | HT-29 > 100 µM | HCC 2998 > 100 µM | UACC-62 > 100 µM | KM12 > 100 µM | LOX IMVI > 100 µM | UO-31 > 100 µM | Malme-3M > 100 µM

CC(C)c1ccc2c(c1)CCC1C(C)(C)[C@@H](O)CC[C@]21C (stereo not given in full)
inactive: TK-10 54 µM | M14 27.9 µM | SN12C 20.9 µM | K562 24.9 µM | NCI-H226 18.7 µM | ACHN 47.4 µM | HT-29 16.3 µM | COLO 205 18.6 µM | HCC 2998 24.8 µM | UACC-62 42.3 µM | KM12 22.3 µM | LOX IMVI 15.1 µM | UO-31 69.5 µM | Malme-3M 17 µM

CC(C)C1COC(c2cccc(C3=N[C@@H](C(C)C)CO3)n2)=N1 (stereo not given in full)
inactive: TK-10 > 100 µM | M14 > 100 µM | SN12C > 100 µM | K562 > 100 µM | NCI-H226 > 100 µM | ACHN > 100 µM | HT-29 > 100 µM | A498 > 100 µM | COLO 205 > 100 µM | HCC 2998 > 100 µM | KM12 > 100 µM | LOX IMVI > 100 µM | UO-31 98.6 µM | Malme-3M > 100 µM
